These are literature values, as cited in patent US20100055177A1, “MODIFIED RELEASE COMPOSITION OF LEVETIRACETAM AND PROCESS FOR THE PREPARATION THEREOF” (priority 2008, published 2010).

Structures are written as SMILES.

As to `CC[C@@H](C(N)=O)N1CCCC1=O` [levetiracetam, (−)-(S)-(alpha)-ethyl-2-oxo-1-pyrrolidine acetamide], the water solubility result is “about 1.04 g/ml”.
